Reference: article PMC7584652 (Nature Communications, 2020)

Experiments:
Settings in all cases: labelled compound ([5′-α-32P]); 10 mM Tris pH 7.5, 100 mM NaCl, 5 mM MgCl2, room temperature
GuaC = GuaC (Bacillus anthracis, UniProt Q81JJ9)
PurR = PurR (Bacillus anthracis, UniProt A0AAC8NAH2)
RbgA = biological target: T1, RbgA (Bacillus anthracis, UniProt A0A6L8PZ03)
T1 construct: gene GBAA_3976

YjbM (SAS1) = biological target: T2, YjbM (SAS1) (Bacillus anthracis, UniProt A0A2P0HBB4)
T2 construct: gene BA_1212

## Nc1nc2c(ncn2[C@@H]2O[C@H](COP(=O)(O)O)[C@@H](OP(=O)(O)OP(=O)(O)O)[C@H]2O)c(=O)[nH]1 [pGpp, guanosine-5′-monophosphate-3′-diphosphate]
GuaC
  DRaCALA screen in E. coli overexpression lysate: including HprT, Xpt, Gmk, and GuaC, bound both pGpp and (p)ppGpp

## Nc1nc2c(ncn2[C@@H]2O[C@H](COP(=O)(O)OP(=O)(O)O)[C@@H](OP(=O)(O)OP(=O)(O)O)[C@H]2O)c(=O)[nH]1 [ppGpp]
PurR
  DRaCALA screen in E. coli overexpression lysate: purine nucleotide synthesis proteins (Hpt1, Xpt, Gmk, GuaC, PurA, and PurR)
RbgA
  DRaCALA screen in E. coli overexpression lysate: ribosome and translation regulatory GTPases (HflX, Der, Obg, RbgA, TrmE, and Era)

## Nc1nc2c(ncn2[C@@H]2O[C@H](COP(=O)(O)OP(=O)(O)OP(=O)(O)O)[C@@H](OP(=O)(O)OP(=O)(O)O)[C@H]2O)c(=O)[nH]1 [pppGpp]
YjbM (SAS1)
  DRaCALA screen in E. coli overexpression lysate: several proteins bind to pppGpp but not ppGpp, including the small alarmone synthetase YjbM
